# Assay results taken from patent US5229412A, “Method for relieving anxiety using 5-hydroxytryptamine-1A-receptor-binding compounds” (The Board of Trustees of the Leland Stanford Junior …, priority 1988, dated 1993).
# How the values were obtained:
# 5-HT1A receptors = conditions: background statement; cited from earlier work
# 5-HT1A = biological target: T1, 5-HT1A (Rattus norvegicus, UniProt P19327); assay: Radioligand binding, 5-HT1A sites labeled by ^3 H-8-OH-DPAT, rat cortex; conditions: for IC50: mean ± standard error of 3-4 experiments
# T1 construct: rat brain were purchased from Pel-Freez; tissue Pel-Freez (Roger, AR); host or cells: rat brain (cortex) membranes
# T1 sequence (P19327 1-422): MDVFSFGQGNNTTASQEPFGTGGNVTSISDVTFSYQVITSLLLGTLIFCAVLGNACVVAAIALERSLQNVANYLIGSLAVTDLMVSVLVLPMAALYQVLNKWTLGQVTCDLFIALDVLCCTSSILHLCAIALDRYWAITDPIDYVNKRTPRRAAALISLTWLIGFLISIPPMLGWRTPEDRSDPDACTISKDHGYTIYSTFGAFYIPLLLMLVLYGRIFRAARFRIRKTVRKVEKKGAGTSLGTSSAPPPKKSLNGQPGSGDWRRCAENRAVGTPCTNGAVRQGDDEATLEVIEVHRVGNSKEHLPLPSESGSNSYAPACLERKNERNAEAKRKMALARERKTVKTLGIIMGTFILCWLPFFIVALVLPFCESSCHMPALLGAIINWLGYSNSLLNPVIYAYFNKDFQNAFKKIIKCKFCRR
# Protocol: (§1) Radioligand binding studies were performed described in Peroutka et al., Molecular Pharmacology (1979) 16:687-699. Briefly, rat brain were purchased from Pel-Freez (Roger, AR). On the day of study, the samples were thawed in Tris-HCl buffer. Tissues were homogenized in 20 volumes Tris-HCl buffer (pH 7.7 at 25° C.) using a Brinkmann Polytron and then centrifuged in an IEC B20A centrifuge at 49,000×g for 10 min. The supernatant was discarded, and the pellet was resuspended in the same volume of Tris-HCl buffer and incubated at 37° C. for 10 min prior to a second centrifugation at 49,000×g for 10 min. The final pellet was resuspended in 80 volumes of Tris-HCl buffer containing 10 μM pargyline, 4 mM calcium chloride and 0.1% ascorbic acid. The suspensions were immediately used in the binding assay. […] Following incubation at 25° C. for 30 minutes, the assays were rapidly filtered under vacuum through #32 glass filters (Schleicher and Scheull: Keene, NH) with two 5 ml washes using 50 mM Tris-HCl buffer. Radioactivity was measured by liquid scintillation spectroscopy in ml of 3a70 Counting Cocktail (Research Products International: Mt. Prospect, IL) at 54% efficiency. […] All drugs were diluted and dissolved in assay buffer.
# (§2) Each experiment was performed in triplicate and repeated 3 to 6 times.
# non-5-HT1A = assay: Radioligand binding, non-5-HT1A sites labeled by ^3 H-5-HT + 100 nM 8-OH-DPAT, rat cortex; conditions: for potency at non-5-HT1A binding sites (in words) / IC50: rat cortex; for IC50: read-out: Drug Potency (IC50) non-5-HT1A (^3 H-5-HT + 100 nM 8-OH-DPAT), mean ± standard error of 3-4 experiments
# Protocol: as §1, with “Briefly,” for “Radioligand binding studies were performed described in Peroutka et al., Molecular Pharmacology (1979) 16:687-699. Briefly,”, “buffer.” for “buffer. Radioactivity was measured by liquid scintillation spectroscopy in ml of 3a70 Counting Cocktail (Research Products International: Mt. Prospect, IL) at 54% efficiency.”
# as §2
# 5-HT2 = biological target: T2, 5-HT2 (Rattus norvegicus, UniProt P14842); assay: Radioligand binding, 5-HT2 sites labeled by ^3 H-spiperone, rat cortex; conditions: for IC50: mean ± standard error of 3-4 experiments
# T2 construct: rat brain were purchased from Pel-Freez; tissue Pel-Freez (Roger, AR); host or cells: rat brain (cortex) membranes
# Protocol: as §1, §2
# [1] = Stability of Compounds 8-11 on storage; type: physicochemical; conditions: methanol; 10 mg/ml, 20° C., 'too months'; read-out: decomposition in methanolic solution
# Protocol: Methanolic solutions (10 mg/ml) are suitable storage forms.
# β-adrenergic receptors = assay: Radioligand binding, β-adrenergic receptors labeled by ^3 H-dihydroalprenolol (^3 H-DHA), rat cortex; conditions: for IC50: mean ± standard error of 3-4 experiments, read-out: Drug Potency (IC50) β-adrenergic (^3 H-DHA); for potency at β-adrenergic receptors relative to 5-HT1A (in words): labeled by ^3 H-DHA
# Protocol: as §1, §2
# T2 sequence (P14842 whole entry): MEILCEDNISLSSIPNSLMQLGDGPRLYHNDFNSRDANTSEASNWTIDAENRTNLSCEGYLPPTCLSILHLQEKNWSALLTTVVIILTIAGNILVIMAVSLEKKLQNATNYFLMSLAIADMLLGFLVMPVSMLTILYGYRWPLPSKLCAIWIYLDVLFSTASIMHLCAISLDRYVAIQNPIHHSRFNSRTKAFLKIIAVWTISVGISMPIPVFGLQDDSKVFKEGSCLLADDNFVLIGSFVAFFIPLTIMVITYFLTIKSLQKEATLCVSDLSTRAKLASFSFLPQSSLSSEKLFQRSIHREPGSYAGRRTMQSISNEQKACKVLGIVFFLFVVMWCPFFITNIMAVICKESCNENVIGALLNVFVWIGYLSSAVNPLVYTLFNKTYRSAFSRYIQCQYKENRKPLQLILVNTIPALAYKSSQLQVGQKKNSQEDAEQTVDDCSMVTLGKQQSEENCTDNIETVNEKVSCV
Structure (SMILES),inhibition of [^3 H]-8-OH-DPAT binding to 5-HT1A receptors (in words) (5-HT1A receptors),potency at the 5-HT1A binding site (in words) (5-HT1A),IC50 (5-HT1A) [nM],potency at non-5-HT1A binding sites (in words) (non-5-HT1A),IC50 (non-5-HT1A) [nM],potency at 5-HT2 binding sites (in words) (5-HT2),IC50 (5-HT2) [nM],degraded at 1460 h [1] [%],IC50 (β-adrenergic receptors) [nM],potency at β-adrenergic receptors relative to 5-HT1A (in words) (β-adrenergic receptors),selectivity for β-adrenergic receptors (in words) (β-adrenergic receptors),Kd (non-5-HT1A; used for Ki calculation) [nM]
CC(C)NC[C@H](O)COc1cccc2ccccc12 [(-)-propranolol],potent inhibitors,,,,,,,,,,,
O=C1CC2(CCCC2)CC(=O)N1CCCCN1CCN(c2ncccn2)CC1 [Buspirone],potent inhibitors,,,,,,,,,,,
"CC(C)(NC(=O)CBr)[C@H]1CC[C@@](C)(NCC(O)COc2cccc3[nH]ccc23)CC1 (some centres unmarked) [Compound 8, N^8-(Bromoacetyl)-N^1-[3-(4-indolyloxy)-2-hydroxypropyl]-(Z)-1,8-diamino-p-menthane]",,"similar, though less potent, affinity",6.3 ± 2,least potent,140 ± 70,least potent,3100 ± 1000,< 5,1.3 ± 0.2,,,
"CC(C)(NCC(O)COc1cccc2[nH]ccc12)[C@H]1CC[C@@](C)(NC(=O)CBr)CC1 (some centres unmarked) [Compound 9, N^1 (Bromoacetyl)-N^8-[3-(4-indolyloxy)-2-hydroxypropyl]-(Z)-1,8-diamino-p-menthane]",,extremely potent,0.71 ± 0.02,approximately less potent,430 ± 200,approximately less potent,4000 ± 500,< 5,5.6 ± 0.5,approximately an order of magnitude less potent,,
"CC(C)(NC(=O)CBr)[C@H]1CC[C@@](C)(NCC(O)COc2cccc3[nH]c(C#N)cc23)CC1 (some centres unmarked) [Compound 10, N^8-(Bromoacetyl)-N1-[3-[(2-cyano-4-indolyl)oxy]-2-hydroxYpropyl]-(Z)-1,8-diamino-p-menthane]",,,,,,,,< 5,,,,
CC(C)(NCC(O)COc1cccc2[nH]c(C#N)cc12)[C@H]1CC[C@@](C)(NC(=O)CBr)CC1 (some centres unmarked) [Compound 11],,"similar, though less potent, affinity",5.3 ± 2,least potent,410 ± 200,least potent,4400 ± 2000,< 5,1.1 ± 0.02,,,
COC(=O)/C=C/C(=O)NC(C)(C)[C@H]1CC[C@@](C)(NCC(O)COc2cccc3[nH]ccc23)CC1 (some centres unmarked) [Compound 12],,"similar, though less potent, affinity",31 ± 8,least potent,270 ± 50,least potent,1100 ± 500,,2.8 ± 0.5,,most selective for β-adrenergic receptors,
COC(=O)/C=C/C(=O)N[C@]1(C)CC[C@H](C(C)(C)NCC(O)COc2cccc3[nH]ccc23)CC1 (some centres unmarked) [Compound 13],,extremely potent,1.2 ± 0.2,approximately less potent,2900 ± 800,approximately less potent,3600 ± 1000,,10 ± 5,approximately an order of magnitude less potent,,
CC(C)(NC(=O)C1=CC2C=CC1CC2)[C@H]1CC[C@@](C)(NCC(O)COc2cccc3[nH]ccc23)CC1 (some centres unmarked) [Compound 14],,"similar, though less potent, affinity",26 ± 8,least potent,46 ± 10,least potent,,,4.2 ± 2,,most selective for β-adrenergic receptors,
CC(C)(NCC(O)COc1cccc2[nH]ccc12)[C@H]1CC[C@@](C)(NC(=O)C2=CC3C=CC2CC3)CC1 (some centres unmarked) [Compound 15],,extremely potent,1.1 ± 0.1,approximately less potent,1300 ± 500,approximately less potent,,,19 ± 9,approximately an order of magnitude less potent,,
O=C1c2ccccc2S(=O)(=O)N1CCCCN1CCN(c2ncccn2)CC1 [TVX Q 7821],potent inhibitors,,,,,,,,,,,
"NCCc1c[nH]c2ccc(O)cc12 [^3 H-5-HT, 5-Hydroxytryptamine]",,,,,,,,,,,,3.2
CN1CCC(=C2c3ccccc3C=Cc3ccccc32)CC1 [cyproheptadine],potent inhibitors,,,,,,,,,,,
CN1CCC(=C2c3ccccc3CCc3sccc32)CC1 [pizotifen],potent inhibitors,,,,,,,,,,,
